Measured values published in patent US20220362279A1, “USE OF OLIGONUCLEOTIDES FOR THE TREATMENT AND PREVENTION OF PAIN” (CONSEJO NACIONAL DE INVESTIGACIONES CIENTÍFICAS Y TÉCNICAS, priority 2018, published 2022).
Entries after “also recorded” stand apart in the source; their conditions may differ. Strand notation (5' to 3'): a small letter for the sugar, then the base; units joined by * are phosphorothioate-linked, units joined directly phosphodiester-linked; [ ] holds rarer units or linkages, { } end groups; capitals alone tell only the bases. d = 2'-deoxy (DNA)

Assays:
Format in all cases: in vivo, rat
rats with SNI = assay: Cold allodynia in rats with spared nerve injury (SNI); details: single dose of 6 mg/kg seven days after SNI, s.c.
Text: In twenty-six rats anesthetized with Isoflurane (5% induction, 2.5% maintenance, 0.8 L/min O2 flow rate; Piramal Healthcare, UK), the right sciatic nerve and its three distal branches were exposed by blunt dissection, and the tibial and common peronneal branches completely sectioned and ligated to prevent regeneration. The third branch, the sural nerve, was left intact. The animals received one single injection of ketoprofen for post-surgical pain control and were left to recover from anesthesia in a warm and quiet environment before relocating them in their corresponding cages.
Rats were administered subcutaneously using the LT protocol (FIG. 4A) and a single dose of 6 mg/kg of IMT504. This was followed by pain-like behavior testing for up to six weeks after SNI.
Naïve (uninjured and untreated; n=16), CFA injured untreated (n=10), and vehicle-treated CFA (n=9) or SNI rats (n=10) were used as controls. Eight naïve rats remained untreated, four were vehicle-treated, and four received a daily dose of 20 mg/kg IMT504 for five consecutive days. Untreated CFA rats received an intradermal hind paw injection of CFA and no further treatment. […]
For cold allodynia assessment, the reaction to the application of a drop of acetone onto the plantar surface of the hind paw was used. Both frequency of withdrawal and cold score (pain-like behavior intensity) were measured.

[1] = test system: rats with postsurgical pain (plantar incision); assay: Naloxone challenge in IMT504-pre-treated rats with plantar incision, mechanical withdrawal threshold
Method: In all experiments, the oligodeoxynucleotide (ODN) IMT504, with sequence 5′-[sequence]-3′ (SEQ ID No 1) was used. The HPLC-grade phosphorothioate ODN (Biosynthesis Inc., Lewisville, Tex., USA) was suspended in sterile saline solution (VEH, 0.9% NaCl; 20 mg/ml; storage concentration) and assayed for LPS contamination. Working concentration doses (6 mg/kg) were obtained by additional dissolving in sterile VEH. The ODN was administered subcutaneously, at a final volume of 200-300 μl, depending on animal weight.
A group of rats also received an intraperitoneal (i.p.) injection of naloxone hydrochloride (Narxona 0.4 mg/ml; Scott-Cassara, Bs. As., Argentina), at a dose of 2 mg/kg, in order to test if the effect of IMT504 could be blocked by the pan-opioid receptor antagonist.
The rat hind paw plantar incision model of postoperative pain was used as previously described [Brennan, T. J., E. P. Vandermeulen, and G. F. Gebhart, Characterization of a rat model of incisional pain. […] Briefly, rats were anesthetized using isoflurane (5% induction, 2.5% maintenance, 0.8 l/min O2 flow rate; Piramal Healthcare, UK) and the plantar aspect of the right hind paw was disinfected with povidone iodine. A 1.0-cm longitudinal incision was made 0.5 cm from the end of the heel. The underlying flexor muscle was also incised longitudinally, allowing the muscle origin and insertion to remain intact. After hemostasis by gentle pressure, the skin was closed with sutures of 5-0 nylon.
Rats were divided into injured rats receiving IMT504 (6 mg/kg, dissolved in VEH) or VEH alone, 48h and 24 h prior to surgery. […]
Mechanical withdrawal thresholds were assessed by using von Frey nylon monofilaments of different bending forces (1.4, 2, 6, 8, 10, 15 and 26 g; Stoelting Inc., Wooddale, USA) and the modified up-down method of Dixon, as described by Chaplan and cols. (Chaplan, S. R., et al., Quantitative assessment of tactile allodynia in the rat paw. J Neurosci Methods, 1994. 53(1): p. 55-63) , to establish the 50% withdrawal threshold. […]

[2] = test system: rats with postsurgical pain (plantar incision); assay: Opioid sparing: morphine in VEH- or IMT504-pre-treated rats with plantar incision, mechanical withdrawal threshold
Method: In all experiments, the oligodeoxynucleotide (ODN) IMT504, with sequence 5′-[…]-3′ (SEQ ID No 1) was used. The HPLC-grade phosphorothioate ODN (Biosynthesis Inc., Lewisville, Tex., USA) was suspended in sterile saline solution (VEH, 0.9% NaCl; 20 mg/ml; storage concentration) and assayed for LPS contamination. Working concentration doses (6 mg/kg) were obtained by additional dissolving in sterile VEH. The ODN was administered subcutaneously, at a final volume of 200-300 μl, depending on animal weight.
Experiments addressing the opioid sparing effects of IMT504 included the subcutaneous (s.c.) injection of morphine hydrochloride trihydrate (Neocalmans, 10 mg/ml, Soubeiran Chobet, Buenos Aires, Argentina) at three different concentrations (1, 3 or 10 mg/kg, dissolved in sterile distilled water).
The rat hind paw plantar incision model of postoperative pain was used as previously described [Brennan, T. J., E. P. Vandermeulen, and G. F. Gebhart, Characterization of a rat model of incisional pain. Pain, 1996. 64(3): p. 493-501. Briefly, rats were anesthetized using isoflurane (5% induction, 2.5% maintenance, 0.8 l/min O2 flow rate; Piramal Healthcare, UK) and the plantar aspect of the right hind paw was disinfected with povidone iodine. A 1.0-cm longitudinal incision was made 0.5 cm from the end of the heel. The underlying flexor muscle was also incised longitudinally, allowing the muscle origin and insertion to remain intact. After hemostasis by gentle pressure, the skin was closed with sutures of 5-0 nylon.
Rats were divided into injured rats receiving IMT504 (6 mg/kg, dissolved in VEH) or VEH alone, 48h and 24 h prior to surgery. These groups were further subdivided into: 1) Rats followed during 3 days after the injury (n=6 per group), for assessment of pain-like behavior after the co-administration of morphine dissolved in injectable water (vehicle) at different doses, 6 and 24 h after injury; 2) Rats followed during 3 days after the injury (n=6 per group), for assessment of pain-like behavior after the co-administration of injectable water (vehicle) alone, 6 and 24 h after injury; 3) Rats followed during 21 days (n=8), for analysis of the administration of naloxone, 3 days after injury.
Mechanical withdrawal thresholds were assessed by using von Frey nylon monofilaments of different bending forces (1.4, 2, 6, 8, 10, 15 and 26 g; Stoelting Inc., Wooddale, USA) and the modified up-down method of Dixon, as described by Chaplan and cols. (Chaplan, S. R., et al., Quantitative assessment of tactile allodynia in the rat paw. J Neurosci Methods, 1994. 53(1): p. 55-63) , to establish the 50% withdrawal threshold. Results were obtained using the formula: 50% g threshold=[…], where Xf=value (in log units) of the final von Frey hair used; k=tabular value for the pattern of positive/negative responses; and […] difference (in log units) between stimuli. Mechanical withdrawal thresholds were tested 48 h before surgery (basal responses), and 6 h, 1, 3, 7, 14 and 21 days after injury.
A dose-response experiment to evaluate the effect of the s.c. administration of morphine at different doses (10, 3 and 1 mg/kg), 6 h or 1 day after injury, in VEH- or IMT504-treated rats (time-points were chosen based on the fact that a certain degree of mechanical withdrawal threshold alterations was still present in IMT504-treated rats was done, which allowed to test if within this therapeutic window, it was possible to fully revert pain-like behavior using smaller morphine doses). […]

naïve rats = assay: Tail immersion test (tail heat nociception) in naïve rats; details: 20 mg/kg daily x5; observed up to 22 days; 52° C. bath
Method: Naïve (uninjured and untreated; n=16), CFA injured untreated (n=10), and vehicle-treated CFA (n=9) or SNI rats (n=10) were used as controls. Eight naïve rats remained untreated, four were vehicle-treated, and four received a daily dose of 20 mg/kg IMT504 for five consecutive days. Untreated CFA rats received an intradermal hind paw injection of CFA and no further treatment. Vehicle-treated CFA rats received five daily subcutaneous injections of saline (200 μl), starting seven days after injury. Vehicle-treated SNI rats received one single dose of saline (200 ul), starting seven days after injury.
For acute thermal nociception assessment, the tail immersion test was used. The latency of tail-flick reflex to swift immersion of the last 3 cm of the tip of the tail of each rat on a hot bath (52° C.) was measured using a stopwatch (resolution of 0.01 s). This was repeated three times, with 10 s intervals, and an average response was obtained.

With “IMT504: synthetic phosphorothioate oligodeoxynucleotide with sequence 5′-TCATCATTTTGTCATTTTGTCATT-3′ (SEQ ID No 1) (DNA dT*dC*dA*dT*dC*dA*dT*dT*dT*dT*dG*dT*dC*dA*dT*dT*dT*dT*dG*dT*dC*dA*dT*dT)” the cold score (rats with SNI) was “reduced to basal levels ten days after injury and onwards”, the “cold withdrawal frequency reduced to basal levels” value (rats with SNI) was “three weeks after injury” and the “anti-allodynic effect of IMT504 under systemic non-selective opioid receptor antagonist” value ([1]; naloxone 2 mg/kg i.p. at day 3 after injury (FIG. 18)) was “temporarily blocked”. For the same substance, the “mechanical allodynia on day 3 after injury” value ([1]; two doses of pre-emptive IMT504 (6 mg/kg, 48 h and 24 h before surgery)) was “completely abolished”, the “anti-allodynic effect of pre-emptive IMT504 and 3 mg/kg morphine” value ([2]; 6 h and 1 day after injury challenges) was “anti-allodynic effects directly comparable to those described for the 10 mg/kg dose in VEH rats” and the “time post injection of morphine with withdrawal thresholds remaining significantly higher” value ([2]; IMT504-pre-treated rats (6 mg/kg, 48 h and 24 h before surgery), particularly at morphine 3 and 10 mg/kg) was at least 120 min. The “withdrawal threshold once the effect of the opioid had worn out (240 min)” value ([2]; IMT504 rats receiving 10 mg/kg morphine, 1 day after injury, vs VEH counterparts) was “retained a significantly higher withdrawal threshold than their VEH counterparts”, the “reduction in morphine concentration to achieve the same effect as in VEH-treated injured rats receiving the highest dose” value ([2]; area under the curve analyses (FIG. 16, FIG. 17)) was 3 fold and the “tail thermal withdrawal latency in naïve rats” value (naïve rats) was “did not shown changes; also recorded: did not show any evident changes”.
